The source made the active and inactive calls. The calls are words filed in the database; no cut-off is given here.
Tests used:
Format in all cases: functional, cell-based
[1] = test system: MDA-MB-231; assay: Cytotoxicity against human MDA-MB-231 cells overexpressing urokinase plasminogen activator
[2] = test system: MCF7; assay: Cytotoxicity against human MCF7 cells overexpressing urokinase plasminogen activator at > 20.3 uM
[3] = test system: MCF7; assay: Cytotoxicity against human MCF7 cells overexpressing urokinase plasminogen activator at > 144 uM

SMILES	IC50 [1] [nM]	inhibition [2]	inhibition [3]
O=c1[nH]c(=O)n([C@H]2C[C@H](O)[C@@H](CO)O2)cc1F [FLOXURIDINE]	210	inactive	
O=C(O)CCC(=O)O[C@H]1C[C@H](n2cc(F)c(=O)[nH]c2=O)O[C@@H]1CO			inactive

— ChEMBL document CHEMBL1157921, “Selective targeting of 2'-deoxy-5-fluorouridine to urokinase positive malignant cells in vitro” (Bioorg Med Chem Lett, 2010)
